Several values for one entry are separate records, joined by “and”; a condition that tells them apart may be missing. Identical values can stand only once. Counter-ions that a name gives are not always drawn. Like-named read-outs stand apart in the source and are kept apart here.
Assays:
[1] = molecular target: T1, human acetylcholine esterase (Homo sapiens, UniProt P22303); assay: Human acetylcholine esterase inhibition (human recombinant, HEK-293 cells; Ellman photometry); format: biochemical; conditions: for inhibitory action toward human acetylcholine esterase (in words): in contrast to galantamine
T1 construct: host or cells: HEK-293 cells

ferret = assay: Emetic activity (retching and vomiting) in the ferret
Sprague Dawley rat = assay: PICA behavior (kaolin consumption) in the Sprague Dawley rat as surrogate for emesis; format: in vivo
Procedure: This is a well established model for this purpose in the rat (Takeda N et al (1993) 45 817-21).
Once determined, a comparison was made of the effects of these doses on kaolin consumption over a 0-96 hour period in 24 h increments.
In detail groups of 10 male Sprague Dawley rats were habituated to kaolin for 3 days, then singly housed in grid-bottomed cages and habituated for a further 2 days prior to dosing. On the day of drug administration, the animals were food-deprived for 1 h prior to dosing. […] Access to a weighed quantity of food and kaolin was then restored. Food and kaolin was weighed 24, 48, 72 and 96 h after dosing.

[2] = tested on: rabbit stomach circular smooth muscle; assay: Ex vivo rabbit stomach circular smooth muscle, electrical field stimulation; format: cell-based; conditions: rabbit stomach strips under EFS; 100 nM to 100 μM
[3] = tested on: human stomach circular smooth muscle; assay: Ex vivo human stomach circular smooth muscle, electrical field stimulation; format: cell-based; conditions: human stomach strips under EFS; 100 nM to 100 μM
[4] = human recombinant (HEK-293 cells), AMTCh 50 μM, 30 min./37° C., read-out: IC50 for inhibition of human acetyl choline esterase
[5] = USP SGF pH 1.2, 37 deg. C., 0 hours
[6] = USP SGF pH 1.2, 37 deg. C., 1 hour
[7] = USP SIF pH 6.8, 37 deg. C., 0 hours
[8] = USP SIF pH 6.8, 37 deg. C., 2 hours
[9] = 40 mg/kg as base p.o., 2 hr. observation, individual ferrets
[10] = 20 mg/kg p.o., 2 hr. observation, individual ferrets, listed as Galantamine valine ester tartrate
[11] = 20 mg (free base)/kg oral or similar molar dose

T1 sequence (P22303 32-614): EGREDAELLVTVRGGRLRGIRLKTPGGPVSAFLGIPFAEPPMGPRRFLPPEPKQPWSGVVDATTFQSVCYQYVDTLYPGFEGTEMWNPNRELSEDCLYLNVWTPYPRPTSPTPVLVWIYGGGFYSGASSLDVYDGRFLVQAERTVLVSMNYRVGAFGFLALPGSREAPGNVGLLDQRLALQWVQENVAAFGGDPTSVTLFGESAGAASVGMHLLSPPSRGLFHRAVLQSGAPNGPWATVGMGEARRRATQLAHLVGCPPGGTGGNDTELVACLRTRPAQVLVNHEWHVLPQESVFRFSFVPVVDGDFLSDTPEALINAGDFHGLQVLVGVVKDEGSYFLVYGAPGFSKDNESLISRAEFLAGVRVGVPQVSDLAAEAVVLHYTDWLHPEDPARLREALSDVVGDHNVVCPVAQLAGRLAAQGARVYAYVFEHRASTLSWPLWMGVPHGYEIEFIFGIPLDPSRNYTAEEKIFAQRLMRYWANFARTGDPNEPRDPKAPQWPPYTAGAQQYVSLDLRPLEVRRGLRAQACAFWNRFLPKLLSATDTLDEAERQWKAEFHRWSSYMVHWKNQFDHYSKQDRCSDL

## COc1ccc2c3c1O[C@H]1C[C@@H](OC(=O)CCCC(=O)Nc4ccc(C(=O)O)cc4)C=C[C@@]31CCN(C)C2 [Galantamine [glutaryl-PABA] ester, galantamine (glutaryl-PABA) ester trifluoroacetate]
[1]
  IC50: > 100 µM
  inhibitory action toward human acetylcholine esterase (in words): significantly less inhibitory actions

## COc1ccc2c3c1O[C@H]1C[C@@H](OC(=O)Nc4cccc(C(=O)O)c4)C=C[C@@]31CCN(C)C2 [Galantamine meta amino benzoic acid carbamate]
[1]; [4]
  IC50: 26 µM
[5]
  % Prodrug Remaining: 100%
[6]
  % Prodrug Remaining: 100%
[7]
  % Prodrug Remaining: 100%
[8]
  % Prodrug Remaining: 100%

## COc1ccc2c3c1O[C@H]1C[C@@H](OC(=O)Nc4ccc(C(=O)O)cc4)C=C[C@@]31CCN(C)C2 [Galantamine para amino benzoic acid carbamate]
[1]; [4]
  IC50: 32 µM
[5]
  % Prodrug Remaining: 100-%
[6]
  % Prodrug Remaining: 100%
[7]
  % Prodrug Remaining: 100%
[8]
  % Prodrug Remaining: 100%

## COc1ccc2c3c1O[C@H]1C[C@@H](OC(=O)NCc4ccc(C(=O)O)cc4)C=C[C@@]31CCN(C)C2 [Galantamine para-amino methyl benzoic acid carbamate]
[1]; [4]
  IC50: 46 µM
[5]
  % Prodrug Remaining: 100%
[6]
  % Prodrug Remaining: 100%
[7]
  % Prodrug Remaining: 100%
[8]
  % Prodrug Remaining: 100%

## COc1ccc2c3c1O[C@H]1C[C@@H](OC(=O)Nc4ccc(C(=O)O)cn4)C=C[C@@]31CCN(C)C2 [Galantamine para-amino nicotinic acid carbamate]
[1]; [4]
  IC50: 55 µM
[5]
  % Prodrug Remaining: 100%
[6]
  % Prodrug Remaining: 100%
[7]
  % Prodrug Remaining: 100%
[8]
  % Prodrug Remaining: 100%

## COc1ccc2c3c1O[C@H]1C[C@@H](OC(=O)N[C@@H](Cc4ccccc4)C(=O)O)C=C[C@@]31CCN(C)C2 [Galantamine phenylalanine carbamate, galantamine-(S)-phenylalanine carbamate trifluoroacetate]
[5]
  % Prodrug Remaining: 94.7%
[6]
  % Prodrug Remaining: 94.7%
[7]
  % Prodrug Remaining: 95.9%
[8]
  % Prodrug Remaining: 95.6%

## COc1ccc2c3c1O[C@H]1C[C@@H](OC(=O)CCC(=O)N[C@H](C(=O)O)C(C)C)C=C[C@@]31CCN(C)C2.O=C(O)C(F)(F)F [Galantamine succinyl valine ester, galantamine-[succinyl-(S)-valine]ester trifluoroacetate]
[1]
  IC50: > 100 µM
  inhibitory action toward human acetylcholine esterase (in words): significantly less inhibitory actions
ferret; [9]
  Time (min) to onset of: Retching: >120 min
  Time (min) to onset of: Vomiting: >120 min
  Total number of individual incidences of: Retching: 0
  Total number of individual incidences of: Vomiting: 0
ferret; 40 mg/kg as base p.o., Mean
  Time (min) to onset of: Retching: >120 min
  Time (min) to onset of: Vomiting: >120 min
  Total number of individual incidences of: Retching: 0
  Total number of individual incidences of: Vomiting: 0
ferret; oral 40 mg galantamine (free base equivs)/kg
  retching or vomiting (in words): no retching or vomiting at all was observed
Sprague Dawley rat; 11.75 mg galantamine free base content/kg po, 24 h
  Cumulative mean ± SD kaolin consumption: 0.14 ± 0.20 g
Sprague Dawley rat; 11.75 mg galantamine free base content/kg po, 48 h
  Cumulative mean ± SD kaolin consumption: 0.29 ± 0.24 g
Sprague Dawley rat; 11.75 mg galantamine free base content/kg po, 72 h
  Cumulative mean ± SD kaolin consumption: 0.48 ± 0.27 g
Sprague Dawley rat; 11.75 mg galantamine free base content/kg po, 96 h
  Cumulative mean ± SD kaolin consumption: 0.57 ± 0.40 g
Sprague Dawley rat; 23.5 mg galantamine free base content/kg po, 24 h
  Cumulative mean ± SD kaolin consumption: 0.31 ± 0.53 g
Sprague Dawley rat; 23.5 mg galantamine free base content/kg po, 48 h
  Cumulative mean ± SD kaolin consumption: 0.61 ± 0.69 g
Sprague Dawley rat; 23.5 mg galantamine free base content/kg po, 72 h
  Cumulative mean ± SD kaolin consumption: 0.95 ± 0.96 g
Sprague Dawley rat; 23.5 mg galantamine free base content/kg po, 96 h
  Cumulative mean ± SD kaolin consumption: 1.25 ± 1.31 g
Sprague Dawley rat; 47 mg galantamine free base content/kg po, 24 h
  Cumulative mean ± SD kaolin consumption: 0.15 ± 0.18 g
Sprague Dawley rat; 47 mg galantamine free base content/kg po, 48 h
  Cumulative mean ± SD kaolin consumption: 0.40 ± 0.18 g
Sprague Dawley rat; 47 mg galantamine free base content/kg po, 72 h
  Cumulative mean ± SD kaolin consumption: 0.63 ± 0.28 g
Sprague Dawley rat; 47 mg galantamine free base content/kg po, 96 h
  Cumulative mean ± SD kaolin consumption: 0.91 ± 0.45 g
Sprague Dawley rat; 47 mg galantamine free base content/kg po, 96 h, listed as GSVE
  Cumulative mean ± SD kaolin consumption: 0.91 ± 0.45 g
Sprague Dawley rat; oral, up to 47 mg (galantamine free base content)/kg
  kaolin consumption compared with vehicle alone (in words): little evidence for any increase in kaolin consumption
[2]
  stimulation of smooth muscle contractions (change in force production): complete absence of any such effect
[3]
  stimulation of smooth muscle contractions (change in force production): complete absence of any such effect

## COc1ccc2c3c1O[C@H]1C[C@@H](OC(=O)[C@@H](N)C(C)C)C=C[C@@]31CCN(C)C2 [Galantamine-(S)-valine ester, galantamine-(S)-valine ester tartrate]
ferret; 20 mg/kg p.o. (galantamine free base content), 2 hr. observation, individual ferrets, listed as Galantamine valine ester tartrate
  Total number of individual incidences of: Retching: 22 and 0 (6×) and 2 (2×) and 3 and 14
ferret; 20 mg/kg p.o., 2 hr. observation, Mean
  Total number of individual incidences of: Retching: 3.9
ferret; [10]
  Time (min) to onset of: Retching: 35 min and >120 min (6×) and 106 min and 11 min and 9 min and 6 min
  Time (min) to onset of: Vomiting: 44 min and >120 min (9×) and 9 min
  Total number of individual incidences of: Vomiting: 1 and 0 (9×) and 3

## [Cl-].[Li+] [LiCl]
Sprague Dawley rat; positive control, 130 mg base/kg po, 24 h
  Cumulative mean ± SD kaolin consumption: 3.33 ± 1.98 g
Sprague Dawley rat; positive control, 130 mg base/kg po, 48 h
  Cumulative mean ± SD kaolin consumption: 3.71 ± 2.22 g
Sprague Dawley rat; positive control, 130 mg base/kg po, 72 h
  Cumulative mean ± SD kaolin consumption: 4.42 ± 2.82 g
Sprague Dawley rat; positive control, 130 mg base/kg po, 96 h
  Cumulative mean ± SD kaolin consumption: 4.82 ± 3.11 g

## galantamine (glutaryl-PABA) ester trifluoroacetate [Galantamine [glutaryl-PABA] ester]
FaSSIF (pH 6.5), 37 deg. C., 0 hours
  % Prodrug Remaining: 96%
FaSSIF (pH 6.5), 37 deg. C., 2 hour
  % Prodrug Remaining: 86%
FeSSIF (pH 6.5), 37 deg. C., 0 hours
  % Prodrug Remaining: 85%
FeSSIF (pH 6.5), 37 deg. C., 2 hours
  % Prodrug Remaining: 90%

## galantamine-(S)-valine ester tartrate
ferret; [11]
  animals dosed that retched: 45%
  animals dosed that vomited: 18%
